Assay results: patent publication US10526320B2, “Pyrrolidine derivatives as PPAR agonists” (GUANGDONG RAYNOVENT BIOTECH CO., LTD., priority 2016, dated 2020)

Each compound was assayed against T1, PPAR Alpha (Homo sapiens, UniProt Q07869) (assay: PathHunter NHR protein interaction / nuclear translocation agonist test, PPAR Alpha). Conditions: not given.
T1 sequence (Q07869 1-468): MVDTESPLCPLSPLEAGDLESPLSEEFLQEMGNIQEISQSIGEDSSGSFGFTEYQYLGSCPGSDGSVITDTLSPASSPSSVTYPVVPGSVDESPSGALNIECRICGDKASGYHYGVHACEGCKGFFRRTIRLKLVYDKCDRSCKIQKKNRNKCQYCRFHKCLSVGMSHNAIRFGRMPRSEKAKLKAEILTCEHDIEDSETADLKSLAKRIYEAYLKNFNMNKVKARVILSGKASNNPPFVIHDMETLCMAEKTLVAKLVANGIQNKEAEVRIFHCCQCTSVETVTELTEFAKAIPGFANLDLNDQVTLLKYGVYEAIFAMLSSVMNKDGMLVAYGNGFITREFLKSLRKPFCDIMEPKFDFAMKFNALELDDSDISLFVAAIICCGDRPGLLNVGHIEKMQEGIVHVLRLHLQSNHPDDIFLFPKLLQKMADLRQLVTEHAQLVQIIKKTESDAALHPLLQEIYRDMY
Format: cell-based

Compound	PPAR Alpha Maximum Activation Response %
COC(=O)N1C[C@@H](C(=O)c2ccc(SC)cc2)[C@H](c2cc(C)c(OC(C)(C)C(=O)O)c(C)c2)C1 (single isomer, unassigned) [Compound 5]	I (key: 100% ≥ I ≥ 80%; 80% ≥ II ≥ 50%; III < 50%)

Same assay, conditions: PPAR Alpha EC50 nM

Compound	EC50 [nM]
CSc1ccc(C(=O)[C@H]2CN(C(=O)Oc3ccc(C)nc3)C[C@@H]2Cc2cc(C)c(OC(C)(C)C(=O)O)c(C)c2)cc1 (racemic) [Compound 53]	100 to 150
CSc1ccc(C(=O)C2CN(C(=O)Oc3ccccc3)CC2Cc2cc(C)c(OC(C)(C)C(=O)O)c(C)c2)cc1 (centres unmarked) [Compound 26]	< 100

Same assay, conditions: agonist mode; read-out: PPAR Alpha EC50

Compound	EC50 [nM]
CSc1ccc(C(=O)[C@H]2CN(C(=O)OC3CCC(C)CC3)C[C@@H]2Cc2cc(C)c(OC(C)(C)C(=O)O)c(C)c2)cc1 (mixture of isomers) [Compound 54]	< 100
CSc1ccc(C(=O)C2CN(C(=O)Oc3ccccc3)CC2CCc2ccc(OC(C)(C)C(=O)O)cc2)cc1 (single isomer, unassigned) [Compound 80]	< 100
Cc1cc(CCC2CN(C(=O)Oc3ccccc3)CC2C(=O)c2ccc(Cl)cc2)cc(C)c1OC(C)(C)C(=O)O (single isomer, unassigned) [Compound 66]	< 100
COC(=O)N1C[C@@H](C(=O)c2ccc(SC)cc2)[C@H](c2cc(C)c(OC(C)(C)C(=O)O)c(C)c2)C1 (single isomer, unassigned) [Compound 5]	> 250

Same assay, conditions: read-out: PPAR Alpha Maximum Activation Response %

Compound	Emax [%]
CSc1ccc(C(=O)[C@H]2CN(C(=O)OC3CCC(C)CC3)C[C@@H]2Cc2cc(C)c(OC(C)(C)C(=O)O)c(C)c2)cc1 (mixture of isomers) [Compound 54]	80 to 100
CSc1ccc(C(=O)C2CN(C(=O)Oc3ccccc3)CC2CCc2ccc(OC(C)(C)C(=O)O)cc2)cc1 (single isomer, unassigned) [Compound 80]	80 to 100
CSc1ccc(C(=O)[C@H]2CN(C(=O)Oc3ccc(C)nc3)C[C@@H]2Cc2cc(C)c(OC(C)(C)C(=O)O)c(C)c2)cc1 (racemic) [Compound 53]	80 to 100

Each compound was assayed against T2, PPAR Delta (Homo sapiens, UniProt Q03181) (assay: PathHunter NHR protein interaction / nuclear translocation agonist test, PPAR Delta). Conditions: not given.
T2 sequence (Q03181 1-441): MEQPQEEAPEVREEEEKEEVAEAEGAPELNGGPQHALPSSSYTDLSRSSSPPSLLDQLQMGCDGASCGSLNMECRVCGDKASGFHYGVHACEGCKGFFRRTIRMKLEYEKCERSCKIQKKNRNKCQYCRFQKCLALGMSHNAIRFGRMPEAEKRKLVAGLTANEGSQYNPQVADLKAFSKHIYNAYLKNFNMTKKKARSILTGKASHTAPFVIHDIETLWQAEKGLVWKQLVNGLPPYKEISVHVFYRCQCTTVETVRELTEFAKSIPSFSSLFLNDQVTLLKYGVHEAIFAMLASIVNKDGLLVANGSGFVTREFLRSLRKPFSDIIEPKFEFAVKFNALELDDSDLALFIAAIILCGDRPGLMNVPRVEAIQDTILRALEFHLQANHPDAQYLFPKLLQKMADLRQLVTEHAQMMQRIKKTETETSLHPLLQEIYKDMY
Format: cell-based

Compound	PPAR Delta Maximum Activation Response %
Cc1cc(CCC2CN(C(=O)Oc3ccccc3)CC2C(=O)c2ccc(Cl)cc2)cc(C)c1OC(C)(C)C(=O)O (single isomer, unassigned) [Compound 66]	I (key: 100% ≥ I ≥ 80%; 80% ≥ II ≥ 50%; III < 50%)

Same assay, conditions: PPAR Delta EC50 nM

Compound	EC50 [nM]
CSc1ccc(C(=O)[C@H]2CN(C(=O)Oc3ccc(C)nc3)C[C@@H]2Cc2cc(C)c(OC(C)(C)C(=O)O)c(C)c2)cc1 (racemic) [Compound 53]	100 to 150

Same assay, conditions: agonist mode; read-out: PPAR Delta EC50

Compound	EC50 [nM]
CSc1ccc(C(=O)[C@H]2CN(C(=O)OC3CCC(C)CC3)C[C@@H]2Cc2cc(C)c(OC(C)(C)C(=O)O)c(C)c2)cc1 (mixture of isomers) [Compound 54]	100 to 150
CSc1ccc(C(=O)C2CN(C(=O)Oc3ccccc3)CC2CCc2ccc(OC(C)(C)C(=O)O)cc2)cc1 (single isomer, unassigned) [Compound 80]	150 to 200
Cc1cc(CCC2CN(C(=O)Oc3ccccc3)CC2C(=O)c2ccc(Cl)cc2)cc(C)c1OC(C)(C)C(=O)O (single isomer, unassigned) [Compound 66]	< 100
CSc1ccc(C(=O)C2CN(C(=O)Oc3ccccc3)CC2Cc2cc(C)c(OC(C)(C)C(=O)O)c(C)c2)cc1 (centres unmarked) [Compound 26]	< 100
COC(=O)N1C[C@@H](C(=O)c2ccc(SC)cc2)[C@H](c2cc(C)c(OC(C)(C)C(=O)O)c(C)c2)C1 (single isomer, unassigned) [Compound 5]	100 to 150

Same assay, conditions: read-out: PPAR Delta Maximum Activation Response %

Compound	Emax [%]
CSc1ccc(C(=O)[C@H]2CN(C(=O)Oc3ccc(C)nc3)C[C@@H]2Cc2cc(C)c(OC(C)(C)C(=O)O)c(C)c2)cc1 (racemic) [Compound 53]	50 to 80
CSc1ccc(C(=O)C2CN(C(=O)Oc3ccccc3)CC2Cc2cc(C)c(OC(C)(C)C(=O)O)c(C)c2)cc1 (centres unmarked) [Compound 26]	50 to 80
COC(=O)N1C[C@@H](C(=O)c2ccc(SC)cc2)[C@H](c2cc(C)c(OC(C)(C)C(=O)O)c(C)c2)C1 (single isomer, unassigned) [Compound 5]	50 to 80

Same assay, conditions: relative to known PPARδ agonist L-165,041 = 100%; read-out: PPAR Delta Maximum Activation Response %

Compound	Emax [%]
CSc1ccc(C(=O)[C@H]2CN(C(=O)OC3CCC(C)CC3)C[C@@H]2Cc2cc(C)c(OC(C)(C)C(=O)O)c(C)c2)cc1 (mixture of isomers) [Compound 54]	80 to 100
CSc1ccc(C(=O)C2CN(C(=O)Oc3ccccc3)CC2CCc2ccc(OC(C)(C)C(=O)O)cc2)cc1 (single isomer, unassigned) [Compound 80]	80 to 100

These compounds were tested against T3, PPAR Gamma (Homo sapiens, UniProt P37231) (assay: PathHunter NHR protein interaction / nuclear translocation agonist test, PPAR Gamma). Conditions: PPAR Gamma EC50 nM.
T3 sequence (P37231 1-505): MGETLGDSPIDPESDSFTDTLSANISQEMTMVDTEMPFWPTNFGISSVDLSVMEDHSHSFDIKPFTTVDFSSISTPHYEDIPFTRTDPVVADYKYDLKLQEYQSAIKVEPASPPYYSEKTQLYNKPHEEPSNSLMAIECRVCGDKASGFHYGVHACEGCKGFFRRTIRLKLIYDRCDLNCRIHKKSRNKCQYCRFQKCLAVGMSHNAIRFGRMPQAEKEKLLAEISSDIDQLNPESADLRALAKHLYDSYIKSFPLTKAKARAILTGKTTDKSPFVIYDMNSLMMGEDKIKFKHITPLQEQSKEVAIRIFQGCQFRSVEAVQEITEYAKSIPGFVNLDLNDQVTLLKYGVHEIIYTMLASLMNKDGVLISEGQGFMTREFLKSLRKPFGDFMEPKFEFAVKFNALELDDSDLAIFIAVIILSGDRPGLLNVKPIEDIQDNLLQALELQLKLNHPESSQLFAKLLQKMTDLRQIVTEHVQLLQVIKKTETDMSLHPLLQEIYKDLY
Format: cell-based

Compound	EC50 [nM]
CSc1ccc(C(=O)[C@H]2CN(C(=O)Oc3ccc(C)nc3)C[C@@H]2Cc2cc(C)c(OC(C)(C)C(=O)O)c(C)c2)cc1 (racemic) [Compound 53]	> 250
CSc1ccc(C(=O)C2CN(C(=O)Oc3ccccc3)CC2Cc2cc(C)c(OC(C)(C)C(=O)O)c(C)c2)cc1 (centres unmarked) [Compound 26]	> 250

Same assay, conditions: agonist mode; read-out: PPAR Gamma EC50

Compound	EC50 [nM]
CSc1ccc(C(=O)[C@H]2CN(C(=O)OC3CCC(C)CC3)C[C@@H]2Cc2cc(C)c(OC(C)(C)C(=O)O)c(C)c2)cc1 (mixture of isomers) [Compound 54]	200 to 250
CSc1ccc(C(=O)C2CN(C(=O)Oc3ccccc3)CC2CCc2ccc(OC(C)(C)C(=O)O)cc2)cc1 (single isomer, unassigned) [Compound 80]	> 250
Cc1cc(CCC2CN(C(=O)Oc3ccccc3)CC2C(=O)c2ccc(Cl)cc2)cc(C)c1OC(C)(C)C(=O)O (single isomer, unassigned) [Compound 66]	150 to 200
COC(=O)N1C[C@@H](C(=O)c2ccc(SC)cc2)[C@H](c2cc(C)c(OC(C)(C)C(=O)O)c(C)c2)C1 (single isomer, unassigned) [Compound 5]	> 250

Same assay, conditions: read-out: PPAR Gamma Maximum Activation Response %

Compound	Emax [%]
CSc1ccc(C(=O)[C@H]2CN(C(=O)Oc3ccc(C)nc3)C[C@@H]2Cc2cc(C)c(OC(C)(C)C(=O)O)c(C)c2)cc1 (racemic) [Compound 53]	80 to 100
COC(=O)N1C[C@@H](C(=O)c2ccc(SC)cc2)[C@H](c2cc(C)c(OC(C)(C)C(=O)O)c(C)c2)C1 (single isomer, unassigned) [Compound 5]	< 50

Same assay, conditions: relative to known PPARγ agonist Troglitazone = 100%; read-out: PPAR Gamma Maximum Activation Response %

Compound	Emax [%]
CSc1ccc(C(=O)[C@H]2CN(C(=O)OC3CCC(C)CC3)C[C@@H]2Cc2cc(C)c(OC(C)(C)C(=O)O)c(C)c2)cc1 (mixture of isomers) [Compound 54]	80 to 100
CSc1ccc(C(=O)C2CN(C(=O)Oc3ccccc3)CC2CCc2ccc(OC(C)(C)C(=O)O)cc2)cc1 (single isomer, unassigned) [Compound 80]	80 to 100
